Measured values from BigSolDB 2.1.

COc1c(C)c2c(c(O)c1C/C=C(\C)CCC(=O)OCCN1CCOCC1)C(=O)OC2
solubility (mole fraction)
Details	in DMSO	in ethanol	in ethyl acetate	in ethylene glycol	in isopropanol	in n-butanol	in propylene glycol	in transcutol	in water
298.2 K	0.023	0.00613	0.0689	0.000715	0.00852	0.0108	0.00105	0.0393	1.75e-06
303.2 K	0.0272	0.00676	0.0744	0.000858	0.00934	0.0119	0.00126	0.0421	2.29e-06
308.2 K	0.0328	0.00749	0.0802	0.00103	0.0102	0.0132	0.00147	0.0452	2.87e-06
313.2 K	0.0388	0.00833	0.0856	0.0012	0.0111	0.0144	0.00168	0.0486	3.49e-06
318.2 K	0.0439	0.00906	0.0928	0.0014	0.0121	0.0159	0.00193	0.0522	4.16e-06

Details	solubility (mole fraction)
in PEG-400, 298.2 K	0.0271
in PEG-400, 303.2 K	0.0312
in PEG-400, 308.2 K	0.0355
in PEG-400, 313.2 K	0.0399
in PEG-400, 318.2 K	0.0449
